Reference: ChEMBL document CHEMBL1155466, “Structure-activity relationships of 6-methyl-benzo[b]thiophene-2-carboxylic acid (1-[(S)-1-benzyl-4-[4-(tetrahydropyran-4-ylmethyl)piperazin-1-yl]butylcarbamoyl]cyclopentyl)amide, potent antagonist of the neurokinin-2 receptor” (J Med Chem, 2010)

Legend:
[1] = molecular target: T1, Substance-K receptor (Homo sapiens, UniProt P21452); test: Displacement of [3H]neurokinin A from human NK2 receptor
T1 sequence (P21452 whole entry): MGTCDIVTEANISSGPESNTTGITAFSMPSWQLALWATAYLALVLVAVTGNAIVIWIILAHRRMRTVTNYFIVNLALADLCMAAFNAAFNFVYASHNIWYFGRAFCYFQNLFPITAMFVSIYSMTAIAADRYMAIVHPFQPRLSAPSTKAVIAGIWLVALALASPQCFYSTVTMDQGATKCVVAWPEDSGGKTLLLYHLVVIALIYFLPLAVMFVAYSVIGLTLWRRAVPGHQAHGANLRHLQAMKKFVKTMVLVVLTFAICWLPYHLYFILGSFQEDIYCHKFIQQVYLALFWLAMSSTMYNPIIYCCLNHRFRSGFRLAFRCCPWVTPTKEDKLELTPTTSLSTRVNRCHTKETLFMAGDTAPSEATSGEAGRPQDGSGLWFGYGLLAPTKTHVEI

[2] = tested on: Cavia porcellus; test: Inhibition of [beta-Ala8]NKA(4-10)-induced colonic contractions in Dunkin-Hartley guinea pig at 3 umol/kg, iv after 4 hrs relative to control; assay type: functional
[3] = molecular target: T2, Substance-K receptor (Cavia porcellus) (UniProt Q64077); test: Antagonist activity at NK2 receptor in Dunkin-Hartley guinea pig colon smooth muscle assessed as inhibition of [beta-Ala8]NKA(4-10)-induced tissue contraction in presence of NK1 receptor antagonist SR-140333; assay type: functional, tissue-based
T2 sequence (whole entry): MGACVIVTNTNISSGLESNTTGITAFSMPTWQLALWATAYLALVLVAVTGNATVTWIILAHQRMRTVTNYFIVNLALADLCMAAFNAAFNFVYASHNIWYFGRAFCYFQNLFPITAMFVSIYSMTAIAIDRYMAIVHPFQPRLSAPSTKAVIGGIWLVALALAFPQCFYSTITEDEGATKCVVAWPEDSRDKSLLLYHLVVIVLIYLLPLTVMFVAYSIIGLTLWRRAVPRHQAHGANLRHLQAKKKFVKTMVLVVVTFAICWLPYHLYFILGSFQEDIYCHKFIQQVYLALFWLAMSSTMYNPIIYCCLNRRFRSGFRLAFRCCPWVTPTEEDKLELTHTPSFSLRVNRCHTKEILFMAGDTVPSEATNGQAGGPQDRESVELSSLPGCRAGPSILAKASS

SMILES | Ki [1] [nM] | pKb [3] | Imax [2] [%]
Cc1ccc2cc(C(=O)NC3(C(=O)N[C@@H](CCCN4CCN(S(=O)(=O)C(C)C)CC4)Cc4ccccc4)CCCC3)sc2c1 | 0.501 | 7.9 | 85
Cc1ccc2cc(C(=O)NC3(C(=O)N[C@@H](CCC(=O)N4CCC(N5CCOCC5)CC4)Cc4ccccc4)CCCC3)sc2c1 | 2 | 7.8 | 
Cc1ccc2cc(C(=O)NC3(C(=O)N[C@@H](CCCN4CCN(S(=O)(=O)N5CCOCC5)CC4)Cc4ccccc4)CCCC3)sc2c1 | 0.501 | 8.4 | 97
Cc1ccc2cc(C(=O)NC3(C(=O)N[C@@H](COCCC4CCN(CC5CCOCC5)CC4)Cc4ccccc4)CCCC3)sc2c1 |  | 6.9 | 
Cc1ccc2cc(C(=O)NC3(C(=O)N[C@@H](CCN4CCN(CC5CCOCC5)CC4)Cc4ccccc4)CCCC3)sc2c1 | 15.8 |  | 
Cc1ccc2cc(C(=O)NC3(C(=O)N[C@@H](/C=C/CN4CCN(CC5CCOCC5)CC4)Cc4ccccc4)CCCC3)sc2c1 | 0.501 | 8.2 | 72
Cc1ccc2cc(C(=O)NC3(C(=O)N[C@@H](CCCN4CCN(Cc5cnc[nH]5)CC4)Cc4ccccc4)CCCC3)sc2c1 | 1 |  | 
Cc1ccc2cc(C(=O)NC3(C(=O)N[C@@H](CCCN4CCC(C(=O)N5CCOCC5)CC4)Cc4ccccc4)CCCC3)sc2c1 | 0.794 | 7.8 | 81
CCS(=O)(=O)N1CCN(CCC[C@@H](Cc2ccccc2)NC(=O)C2(NC(=O)c3cc4ccc(C)cc4s3)CCCC2)CC1 | 0.631 | 8 | 77
CC/N=C(\N1CCOCC1)N1CCN(CCC[C@@H](Cc2ccccc2)NC(=O)C2(NC(=O)c3cc4ccc(C)cc4s3)CCCC2)CC1 | 0.794 | 8 | 
Cc1ccc2cc(C(=O)NC3(C(=O)N[C@@H](CCCN4CCN(c5ccccn5)CC4)Cc4ccccc4)CCCC3)sc2c1 | 0.631 | 7.8 | 76
Cc1ccc2cc(C(=O)NC3(C(=O)N[C@@H](CCCN4CCC(N(C)C5CCOCC5)CC4)Cc4ccccc4)CCCC3)sc2c1 | 1.26 | 7.8 | 
Cc1ccc2cc(C(=O)NC3(C(=O)N[C@@H](CCCN4CCN(C(=O)C5CCOCC5)CC4)Cc4ccccc4)CCCC3)sc2c1 |  | 8.1 | 97
Cc1ccc2cc(C(=O)NC3(C(=O)N[C@@H](COCC4CCN(CC5CCOCC5)CC4)Cc4ccccc4)CCCC3)sc2c1 | 0.631 | 7.6 | 46
Cc1ccc2cc(C(=O)NC3(C(=O)N[C@@H](CCCN4CCC(N5CCOCC5)CC4)Cc4ccccc4)CCCC3)sc2c1 | 0.501 | 7.8 | 
Cc1ccc2cc(C(=O)NC3(C(=O)N[C@@H](CCCN4CCN(S(N)(=O)=O)CC4)Cc4ccccc4)CCCC3)sc2c1 | 0.631 | 7.8 | 62
Cc1ccc2oc(C(=O)NC3(C(=O)N[C@@H](CCCN4CCN(CC5CCOCC5)CC4)Cc4ccccc4)CCCC3)cc2c1 | 0.398 | 8.7 | 100
Cc1ccc2cc(C(=O)NC3(C(=O)N[C@H](CCCN4CCN(CC5CCOCC5)CC4)Cc4ccccc4)CCCC3)sc2c1 | 0.631 | 7.7 | 
Cc1ccc2cc(C(=O)NC3(C(=O)N[C@H](Cc4ccccc4)CN4CCN(CC5CCOCC5)CC4)CCCC3)sc2c1 | 2 | 7.6 | 
Cc1ccc2cc(C(=O)NC3(C(=O)N[C@@H](CCCN4CCN(C=O)CC4)Cc4ccccc4)CCCC3)sc2c1 | 2 | 7.8 | 
Cc1ccc2cc(C(=O)NC3(C(=O)N[C@@H](CCCN4CCC(CCO)CC4)Cc4ccccc4)CCCC3)sc2c1 | 2 | 8.1 | 47
Cc1ccc2cc(C(=O)NC3(C(=O)N[C@@H](CCCN4CCN(Cc5c[nH]cn5)CC4)Cc4ccccc4)CCCC3)sc2c1 |  | 8 | 83
Cc1ccc2cc(C(=O)NC3(C(=O)N[C@@H](CCCN4CCC(CN5CCOCC5)CC4)Cc4ccccc4)CCCC3)sc2c1 | 1 | 7.8 | 62
CO/N=C(\N1CCOCC1)N1CCN(CCC[C@@H](Cc2ccccc2)NC(=O)C2(NC(=O)c3cc4ccc(C)cc4s3)CCCC2)CC1 |  |  | 100
Cc1ccc2cc(C(=O)NC3(C(=O)N[C@@H](CCCC4CCN(CC5CCOCC5)CC4)Cc4ccccc4)CCCC3)sc2c1 |  | 7.9 | 67

Further lines, with some results ahead:

Ki [1] [nM] | pKb [3] | SMILES | Imax [2] [%]
0.398 | 8.3 | Cc1ccc2cc(C(=O)NC3(C(=O)N[C@@H](CCCN4CCN(C(=O)N5CCOCC5)CC4)Cc4ccccc4)CCCC3)sc2c1 | 85
0.316 | 7.9 | Cc1ccc2cc(C(=O)NC3(C(=O)N[C@@H](CCCN4CCN(Cc5nnn(C)n5)CC4)Cc4ccccc4)CCCC3)sc2c1 | 72
0.316 | 7.2 | CCOCCCN1CCN(CCC[C@@H](Cc2ccccc2)NC(=O)C2(NC(=O)c3cc4ccc(C)cc4s3)CCCC2)CC1 | 
0.251 | 8.2 | O=C(NC1(C(=O)N[C@@H](CCCN2CCN(CC3CCOCC3)CC2)Cc2ccccc2)CCCC1)c1cc2ccccc2s1 | 82
0.158 | 7.9 | Cc1ccc2cc(C(=O)NC3(C(=O)N[C@@H](CCCN4CCN(Cc5ccccn5)CC4)Cc4ccccc4)CCCC3)sc2c1 | 90
0.316 | 7.9 | Cc1ccc2cc(C(=O)NC3(C(=O)N[C@@H](CCCN4CCN(S(=O)(=O)N(C)C)CC4)Cc4ccccc4)CCCC3)sc2c1 | 80
0.316 | 7.8 | Cc1ccc2cc(C(=O)NC3(C(=O)N[C@@H](CCC(=O)N4CCC(N(C)C5CCOCC5)CC4)Cc4ccccc4)CCCC3)sc2c1 | 90
0.126 | 8.2 | Cc1ccc2cc(C(=O)NC3(C(=O)N[C@@H](CCCN4CCN(Cc5ccc(F)cc5)CC4)Cc4ccccc4)CCCC3)sc2c1 | 66
0.158 | 7.7 | Cc1ccc2cc(C(=O)NC3(C(=O)N[C@@H](CCCN4CCN(Cc5cccs5)CC4)Cc4ccccc4)CCCC3)sc2c1 | 83
0.0794 | 8.2 | Cc1ccc2cc(C(=O)NC3(C(=O)N[C@@H](CCC(=O)N4CCN(C5CCOCC5)CC4)Cc4ccccc4)CCCC3)sc2c1 | 99
0.251 | 8.1 | Cc1ccc2cc(C(=O)NC3(C(=O)N[C@@H](CCCN4CCN(C5CCOCC5)CC4)Cc4ccccc4)CCCC3)sc2c1 | 100
0.158 | 8.2 | Cc1ccc2cc(C(=O)NC3(C(=O)N[C@@H](CCCN4CCN(Cc5ccoc5)CC4)Cc4ccccc4)CCCC3)sc2c1 | 67
0.0794 | 7.9 | Cl.N[C@@H](CCC(=O)N1CCN(CC2CCOCC2)CC1)Cc1ccccc1 | 99
0.316 | 8.2 | Cc1ccc2cc(C(=O)NC3(C(=O)N[C@@H](CCCN4CCN(Cc5cccnc5)CC4)Cc4ccccc4)CCCC3)sc2c1 | 84
0.251 | 8.4 | Cc1ccc2cc(C(=O)NC3(C(=O)N[C@@H](CCCN4CCN(Cc5ccncc5)CC4)Cc4ccccc4)CCCC3)sc2c1 | 86
0.398 | 8.2 | Cc1ccc2cc(C(=O)NC3(C(=O)N[C@@H](CCCN4CCN(C(=O)c5cccn5C)CC4)Cc4ccccc4)CCCC3)sc2c1 | 100
